Source: US7262185B2, “Benzazepine derivative, process for producing the same, and use” (Takeda Chemical Industries Ltd., priority 2001, dated 2007)

Target: T1, human CCR5 chemokine receptor (Homo sapiens, UniProt P51681)
T1 construct: expressed in transfected cells
Experiment: Inhibition of [125I]-RANTES binding to CCR5/CHO cells (CCR5 antagonistic activity)
Conditions: 40 min, test compound 1 μM, [125I]-RANTES as ligand, room temperature, read-out: Binding Inhibitory Ratio (%)
Protocol: Cloning of CCR5 gene from human spleen cDNA was conducted using the PCR method. Using spleen cDNA (0.5 ng) (TOYOBO CO., LTD, QUICK-Clone cDNA) as a template, PCR was performed in a DNA Thermal Cycler 480 (manufactured by Perkin Elmer) (reaction conditions: 30 cycles of 95° C. for 1 minute, 60° C. for 1 minute, and 75° C. for 5 minutes) by adding primer sets, SEQ. ID NO: 1 (sequence length: 34; sequence type: nucleic acid; chain number: single strand; topology: linear; kind of sequence: other nucleic acid synthetic. DNA) described in Experimental. Example (1) of WO 99/32100, and SEQ ID NO: 2 (sequence length: 34; sequence type: nucleic acid; chain number: single strand; topology: linear; kind of sequence: other nucleic acid synthetic. DNA) described in Experimental. Example (1) of WO 99/32100, (25 pmol, respectively), which were prepared referring to the nucleotide sequence of CCR5 gene, as reported by Samson et al. (Biochemistry 35 (11), 3362-3367 (1996)) and by using TaKaRa. EX Taq (Takara Shuzo). The resultant. PCR product was subjected to agarose gel electrophoresis to collect an approximately 1.0 kb. DNA fragment, which was subjected to an Original TA Cloning Kit (Funakoshi Co., Ltd.) to carry out cloning of CCR5 gene.
The plasmid obtained above was digested with restriction enzymes XbaI (Takara Shuzo Co., Ltd.) and BamHI (Takara Shuzo Co., Ltd.), and then subjected to agarose gel electrophoresis to collect DNA fragment of about 1.0 kb. The DNA fragment and plasmid pcDNA 3.1 (Funakoshi. Co., Ltd.) for expression in animal cells, which was previously digested with XbaI and BamHI, were mixed and ligated by DNA Ligation Kit Ver. 2 (Takara Shuzo Co., Ltd.). The resulting plasmid was subjected to transformation into. E. coli JM109 competent cells (Takara Shuzo Co., Ltd.) to obtain plasmid pCKR5.
CHO-K1 cells were cultured in a 750-ml tissue culture flask (Becton, Dickinson and Company.) using. Ham F12 medium (NIHON PHARMACEUTICAL CO., LTD.) containing 10% fetal bovine serum (Lifetech Oriental) and were collected using 0.5 g/L trypsin-0.2 g/L EDTA (Lifetech Oriental). The cells were washed with PBS (Lifetech Oriental), centrifuged (1000 rpm, 5 minutes), and suspended in PBS. The DNA was introduced into the cells using a Gene Pulser (Bio-Rad Laboratories, Inc.) under the following conditions. Namely, 8×10^6 cells and 10 μg of plasmid pCKR5 for expression of human CCR5 were placed in a cuvette having a 0.4-cm gap, and electroporation was carried out with a voltage 0.25 kV and 960 μF of capacitance. Then, the cells were transferred into Ham's. F12 medium containing 10% fetal bovine serum, and incubated for 24 hours. The cells were collected, centrifuged, and suspended in Ham' F12 medium containing 10% fetal bovine serum and Geneticin (Lifetech Oriental) at a concentration of 500 μg/ml. The suspension of cells was diluted to a concentration of 10^4 cells/ml, and was inoculated onto 96-well plate (Becton Dickinson), to obtain Geneticin-resistant strain.
Then, resulting. Geneticin-resistant strain were cultured on 96-well plate (Becton Dickinson), and CCR5-expressing cells were selected from the resistant cells. Namely, in an assay buffer, (Ham's F12 medium containing 0.5% BSA, and 20 mM HEPES (Wako Pure Chemical Ind., pH 7.2)) to which was added […][125I]-RANTES (Amersham) as a ligand, the cells were subjected to a binding reaction at room temperature for 40 minutes. Wells containing the cells were washed with ice-cooled PBS, and 50 μl/well of 1M NaOH was added and stirred. The cells to which the ligand was bound specifically, i.e., CCR5/CHO cells, were selected by measurement of radioactivity using a […].
The CCR5/CHO cells were inoculated onto 96-well microplate at a concentration of 5×10^4 cells/well, and were cultured for 24 hours. After removal of the medium by aspiration, to each well was added an assay buffer containing a test compound (1 μM), and [125I]/RANTES (Amersham) used as a ligand at a concentration of […]. […]

T1 sequence (P51681 whole entry): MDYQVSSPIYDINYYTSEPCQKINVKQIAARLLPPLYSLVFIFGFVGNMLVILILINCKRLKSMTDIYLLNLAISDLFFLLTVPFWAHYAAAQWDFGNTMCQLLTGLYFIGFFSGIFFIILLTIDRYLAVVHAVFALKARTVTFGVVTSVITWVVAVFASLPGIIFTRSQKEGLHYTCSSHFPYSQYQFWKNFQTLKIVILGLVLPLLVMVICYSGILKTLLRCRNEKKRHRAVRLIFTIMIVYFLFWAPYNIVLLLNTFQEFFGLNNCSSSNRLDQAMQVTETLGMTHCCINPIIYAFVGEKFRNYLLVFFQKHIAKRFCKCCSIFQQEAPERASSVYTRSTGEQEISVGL

| Compound | inhibition at 1 µM |
| --- | --- |
| CCCCOCCOc1ccc(-c2ccc3c(c2)C=C(C(=O)Nc2ccc(SCc4nncn4CCC)nc2)CCN3CC(C)C)cc1 [Compound 53, 7-[4-(2-butoxyethoxy)phenyl]-1-isobutyl-N-[2-(4-propyl-4H-1,2,4-triazol-3-yl)methylthiopyridin-5-yl]-2,3-dihydro-1H-1-benzazepine-4-carboxamide] | 98% |
| CCCCOCCOc1ccc(-c2ccc3c(c2)C=C(C(=O)Nc2ccc([S+]([O-])CC4=NNCN4CCC)nn2)CCN3CC(C)C)cc1 (stereo not shown) [Compound 68, 7-[4-(2-butoxyethoxy)phenyl]-1-isobutyl-N-[6-[(4-propyl-1H-1,2,4-triazol-3-yl)methylsulfinyl]pyridazin-3-yl]-2,3-dihydro-1H-1-benzazepine-4-carboxamide] | 97% |
| CCCCOCCOc1ccc(-c2ccc3c(c2)C=C(C(=O)Nc2ccc([S+]([O-])Cc4cncn4C4CC4)cc2)CCN3CC(C)C)cc1 (stereo not shown) [Compound 74, 7-[4-(2-butoxyethoxy)phenyl]-1-isobutyl-N-[4-[(3-cyclopropylimidazol-4-yl)methylsulfinyl]phenyl]-2,3-dihydro-1H-1-benzazepine-4-carboxamide] | 97% |
| CCCCOCCOc1ccc(-c2ccc3c(c2)C=C(C(=O)Nc2ccc([C@H](O)c4cccc[n+]4[O-])cc2)CCN3CC(C)C)cc1 [Compound 85, 7-[4-(2-butoxyethoxy)phenyl]-N-[4-[(S)-hydroxy(1-oxidopyridin-2-yl)methyl]phenyl]-1-isobutyl-2,3-dihydro-1H-1-benzazepine-4-carboxamide] | 92% |
| CCCCOCCOc1ccc(-c2ccc3c(c2)C=C(C(=O)Nc2ccc(CSc4nncn4C)cc2)CCN3CC(C)C)cc1 [Compound 117, 7-[4-(2-butoxyethoxy)phenyl]-N-[4-(4-methyl-4H-1,2,4-triazol-3-ylthiomethyl)phenyl]-1-isobutyl-2,3-dihydro-1H-1-benzazepine-4-carboxamide] | 95% |
| CCCCOCCOc1ccc(-c2ccc3c(c2)C=C(C(=O)Nc2ccc(SCc4nncn4C)cc2)CCN3CC(C)C)cc1 [Compound 130, 7-[4-(2-butoxyethoxy)phenyl]-N-[4-(4-methyl-4H-1,2,4-triazol-3-ylmethylthio)phenyl]-1-isobutyl-2,3-dihydro-1H-1-benzazepine-4-carboxamide] | 100% |
| CCCCOCCOc1ccc(-c2ccc3c(c2)C=C(C(=O)Nc2ccc([S+]([O-])Cc4nncn4CCC)cc2)CCN3CCC)cc1 (stereo not shown) [Compound 141, 7-[4-(2-butoxyethoxy)phenyl]-1-propyl-N-[4-(4-propyl-4H-1,2,4-triazol-3-ylmethylsulfinyl)phenyl]-2,3-dihydro-1H-benzazepine-4-carboxamide] | 100% |
| CCCCOCCOc1ccc(-c2ccc3c(c2)C=C(C(=O)Nc2ccc(CCc4nncn4CCC)cc2)CCN3CC(C)C)cc1 [Compound 152, 7-[4-(2-butoxyethoxy)phenyl]-1-isobutyl-N-[4-[2-(4-propyl-4H-1,2,4-triazol-3-yl)ethyl]phenyl]-2,3-dihydro-1H-benzazepine-4-carboxamide] | 97% |
| CCCCOCCOc1ccc(-c2ccc3c(c2)C=C(C(=O)Nc2ccc(SCCn4cnnc4)cc2)CCN3CC(C)C)cc1 [Compound 154, 7-[4-(2-butoxyethoxy)phenyl]-N-[4-(4H-1,2,4-triazol-4-ylethylthio)phenyl]-1-isobutyl-2,3-dihydro-1H-benzazepine-4-carboxamide] | 100% |
| CCCCOCCOc1ccc(-c2ccc3c(c2)C=C(C(=O)Nc2ccc([S+]([O-])Cc4cccnc4)cc2)CCN3CC(C)C)cc1 (stereo not shown) [Compound 210, 7-[4-(2-butoxyethoxy)phenyl]-1-isobutyl-N-[4-[(3-pyridinylmethyl)sulfinyl]phenyl]-2,3-dihydro-1-benzazepine-4-carboxamide] | 97% |
| CCCCOCCOc1ccc(-c2ccc3c(c2)C=C(C(=O)Nc2ccc([S+]([O-])Cc4nc(C)cc(C)n4)cc2)CCN3CC(C)C)cc1 (stereo not shown) [Compound 230, 7-[4-(2-butoxyethoxy)phenyl]-N-[4-[[(4,6-dimethyl-2-pyrimidinyl)methyl]sulfinyl]phenyl]-1-isobutyl-2,3-dihydro-1-benzazepine-4-carboxamide] | 98% |
| CCCCOCCOc1ccc(-c2ccc3c(c2)C=C(C(=O)Nc2ccc([S+]([O-])Cc4cccnc4)c(OC)c2)CCN3CC(C)C)cc1 (stereo not shown) [Compound 240, 7-[4-(2-butoxyethoxy)phenyl]-1-isobutyl-N-[3-methoxy-4-[(3-pyridinylmethyl)sulfinyl]phenyl]-2,3-dihydro-1-benzazepine-4-carboxamide] | 97% |
| CCCCOCCOc1ccc(-c2ccc3c(c2)C=C(C(=O)Nc2ccc([S+]([O-])Cc4nnnn4CC)cc2)CCN3CC(C)C)cc1 (stereo not shown) [Compound 242, 7-[4-(2-butoxyethoxy)phenyl]-1-isobutyl-N-[4-[[(1-ethyl-tetrazol-5-yl)methyl]sulfinyl]phenyl]-2,3-dihydro-1-benzazepine-4-carboxamide] | 94% |
| CCCCOCCOc1ccc(-c2ccc3c(c2)C=C(C(=O)Nc2ccc([S+]([O-])Cc4cccnc4C)cc2)CCN3CC(C)C)cc1 (stereo not shown) [Compound 251, 7-[4-(2-butoxyethoxy)phenyl]-1-isobutyl-N-[4-[[(2-methyl-3-pyridinyl)methyl]sulfinyl]phenyl]-2,3-dihydro-1-benzazepine-4-carboxamide] | 99% |
| CCCCOCCOc1ccc(-c2ccc3c(c2)C=C(C(=O)Nc2ccc([S+]([O-])Cc4cccnn4)cc2)CCN3CC(C)C)cc1 (stereo not shown) [Compound 259, 7-[4-(2-butoxyethoxy)phenyl]-1-isobutyl-N-[4-[(3-pyridazinylmethyl)sulfinyl]phenyl]-2,3-dihydro-1-benzazepine-4-carboxamide] | 88% |
| CCCCOCCOc1ccc(-c2ccc3c(c2)C=C(C(=O)Nc2ccc([S+]([O-])Cc4cccnc4C)nc2)CCN3CC(C)C)cc1 (stereo not shown) [Compound 272, 7-[4-(2-butoxyethoxy)phenyl]-1-isobutyl-N-[6-[[(2-methyl-3-pyridinyl)methyl]sulfinyl]-3-pyridinyl]-2,3-dihydro-1-benzazepine-4-carboxamide] | 98% |
| CCCCOCCOc1ccc(-c2ccc3c(c2)C=C(C(=O)Nc2ccc([S+]([O-])Cc4cncn4CCOC)cc2)CCN3CC(C)C)cc1 (stereo not shown) [Compound 308, 7-[4-(2-butoxyethoxy)phenyl]-1-isobutyl-N-[4-[[[1-(2-methoxyethyl)imidazol-5-yl]methyl]sulfinyl]phenyl]-2,3-dihydro-1-benzazepine-4-carboxamide] | 100% |
| CCCCOCCOc1ccc(-c2ccc3c(c2)C=C(C(=O)Nc2ccc4nc([S+]([O-])Cc5cncn5CCC)[nH]c4c2)CCN3CC(C)C)cc1 (stereo not shown) [Compound 313, 7-[4-(2-butoxyethoxy)phenyl]-1-isobutyl-N-[2-[[(1-propylimidazol-5-yl)methyl]sulfinyl]benzimidazol-5-yl]-2,3-dihydro-1-benzazepine-4-carboxamide] | 95% |
| CCCCOCCOc1ccc(-c2ccc3c(c2)C=C(C(=O)Nc2ccc(SCc4nccn4C)c(C)c2)CCN3CC(C)C)cc1 [Compound 355, 7-[4-(2-butoxyethoxy)phenyl]-1-isobutyl-N-[3-methyl-4-[[(1-methylimidazol-2-yl)methyl]sulfanyl]phenyl]-2,3-dihydro-1-benzazepine-4-carboxamide] | 99% |
